The test system of series [1] is rhythmic reflex contractions of the bladder. In words: complete bladder-outlet obstruction (isovolumetric) model of overactive bladder in the rat. The following applies: i.v.; for maximum intravesical pressure: all doses tested (HP183 0.3, 1, 3 mg/kg; HP184 1, 3, 10 mg/kg; HP749 1.6, 3.5, 10.5 mg/kg). The class given is in vivo, female Wistar rats. An excerpt:
The compounds of Table 1 have been evaluated in a conventional animal model of overactive bladder: the complete bladder-outlet obstruction model in the rat, referred to as “isovolumetric” model (K. Sugaya, Y. Ogawa, O, Nishizawa, W C De Groat, Decrease in intravesical saline volume during isovolumetric cystometry in the rat, Neurourol. Urodyn, 1997, 16:125-132). In this model, rhythmic reflex contractions of the bladder are induced in female Wistar rats in which the urethra has been ligatured.
The rats are anaesthetized and implanted with a jugular catheter for the intravenous administration of the compounds. A transurethral catheter is introduced into the bladder, through the bladder dome, so as to allow the infusion of a saline solution and measurement of the intravesical pressure. The urethra is ligatured in order to close off the bladder.
The bladder is infused (50 μl/min) via the transurethral catheter with a saline solution until uninhibited rhythmic contractions appear. The infusion is then stopped and the intravesical pressure is measured for a period of 60 min preceding the injection of the study compounds. The compounds to be studied are then injected via the jugular catheter, and the intravesical pressure is recorded for a period of 60 min. The intravenous administration of the compounds during this test limits the metabolization of HP749 and of HP184 to HP748 and HP183, respectively. The animals are sacrificed at the end of the experiment by means of an overdose of pentobarbital. A scheme of the experiment is given below.
The data from the experiment are analysed with the ELPHY software (a free version of which is accessible at the following address: http://www.unic.cnrs-gif.fr/software/software.htm). The parameters analysed are as follows: • Maximum intravesical pressure (MP, expressed in mmHg) • Threshold pressure (ThP, expressed in mmHg) compared with the carrier (FIG. 2B).

The test system of a further series is bladder contractions. The following applies: rats suffering from bladder irritation; cited from earlier work.
For series [2] the following is noted: human; cited from earlier work.
[3] abbreviates: all doses tested (HP183 0.3, 1, 3 mg/kg; HP184 1, 3, 10 mg/kg), 60 min recording, compared with the carrier.
Where [4] appears, read: 60 min recording, compared with the carrier.

Molecules are shown by their SMILES.

In the case of `Cc1cn(Nc2ccncc2F)c2ccccc12` [HP183, N-(3-fluoro-4-pyridinyl)-3-methyl-1H-indol-1-amine], the “frequency of rhythmic isovolumetric contractions” value in series [1] (setting [3]) was “no statistically significant effect”. For the same molecule, the maximum intravesical pressure result in series [1] (setting [4]) is “no statistically significant effect”.
For the molecule `CCCN(c1ccncc1F)n1cc(C)c2ccccc21` [HP184, N-(3-fluoro-4-pyridinyl)-N-propyl-3-methyl-1H-indol-1-amine], the “frequency of bladder contractions related to bladder irritation” value with bladder contractions is recorded as “slightly decreasing”. Further, the “frequency of rhythmic isovolumetric contractions” value in series [1] (setting [3]) is on record as “no statistically significant effect”. For the same molecule, in series [1] (setting [4]), the maximum intravesical pressure entry is reported as “no statistically significant effect”.
Consider `c1ccc2c(c1)ccn2Nc1ccncc1` [HP748, N-(4-pyridinyl)-1H-indol-1-amine], for which, in series [1] (from the first dose of 0.3 mg/kg, dose-dependent), the “frequency of bladder contractions” value was “considerably and statistically significantly decreased”.
With `CCCN(c1ccncc1)n1ccc2ccccc21` [HP749, N-propyl-N-(4-pyridinyl)-1H-indol-1-amine], the maximum intravesical pressure result in series [1] (setting [4]) is listed as “did not demonstrate any effect”. Besides, the results for the “frequency of rhythmic isovolumetric contractions” value in series [1] (highest dose (10.5 mg/kg)) and in series [1] (lowest dose (HP749 1.6 mg/kg)) were “increasing” and “decreasing”, respectively. Moreover, the “metabolite formed by biotransformation” value in series [2] is “metabolized in human to compound (I)”.
